Source: patent US9616081B2, “Antitumor agent including low-dose irinotecan hydrochloride hydrate” (TAIHO PHARMACEUTICAL CO., LTD., priority 2013, dated 2017)
Where a name gives a salt, the structure may show the parent alone.

Assays:
[1] = test system: human colon cancer cell line (KM20C); assay: Reference Example: survival of mice intraperitoneally transplanted with KM20C, monotherapy; type: in vivo; settings: i.v., weekly; for ILS (increase in life span): 6 weeks from Day 3; for Survival time (day) Mean ± SD: 6 weeks from Day 3, BALB/cA Jcl-nu mice
Experimental: Cultured cells (1×10^7 cells/mouse) of human colon cancer cell line (KM20C) were intraperitoneally transplanted into 5-6 weeks old BALB/cA Jcl-nu mice after birth, and the mice were assigned to each group so that the mean body weight of each group became equal. The date on which such grouping (n=10) was performed was taken as Day 0.
[…]. Starting the dug administration from Day 3, a 5-days' daily oral administration of the FTD/TPI combination drug with 2-days' rest was performed for 6 weeks, and CPT-11 was administered once in a week from the tail vein for 6 weeks.
As an index of the antitumor effect, the number of survivors of each group of mice and the survival time of each group was compared.

[2] = dose of 111 mg/kg/day; cited from earlier work
[3] = test system: human gastric cancer cell line (SC-2); assay: Example 3: combined administration test, SC-2 tumor in mice (RTV, TGI); settings: Day 1, 8, i.v., q.d.

## CCc1c2c(nc3ccc(OC(=O)N4CCC(N5CCCCC5)CC4)cc13)-c1cc3c(c(=O)n1C2)COC(=O)[C@]3(O)CC [CPT-11, irinotecan hydrochloride hydrate]
[1]; 80 mg/kg/day
  ILS (increase in life span): 54.0%
  Survival time (day) Mean ± SD: 61.6 ± 12.6 days
[1]; 100 mg/kg/day
  ILS (increase in life span): 81.3%
  Survival time (day) Mean ± SD: 72.5 ± 12.3 days
[2]
  death case reported: death case
[3]; 40 mg/kg/day
  TGI, tumor growth inhibition rate on Day 15: 64.6%
[3]; 80 mg/kg/day
  TGI, tumor growth inhibition rate on Day 15: 79.4%
